Source: ChEMBL document CHEMBL1201862, “PubChem BioAssay data set” (2004)
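Each compound was tested at five concentrations against cells in 96-well plates for 48 hours. The concentration for 50% growth inhibition is given as GI50.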 Calls of active or inactive are those of the source. Rule as the data show it: active = GI50 up to about 1.1 µM and inactive = higher.

Experiments:
Experiment in all cases: inhibition of tumour cell growth, NCI panel, 48 h
A549 = tested on: A549
CAKI-1 = tested on: CAKI-1
HCT-116 = tested on: HCT-116
CCRF-CEM = tested on: CCRF-CEM
TK-10 = tested on: TK-10
NCI-H23 = tested on: NCI-H23
SF-268 = tested on: SF-268
LOX IMVI = tested on: LOX IMVI
HT-29 = tested on: HT-29
SN12C = tested on: SN12C
SF-295 = tested on: SF-295
SK-OV-3 = tested on: SK-OV-3
KM12 = tested on: KM12
SK-MEL-2 = tested on: SK-MEL-2
HCT-15 = tested on: HCT-15

Compound	GI50 (A549)	GI50 (CAKI-1)	GI50 (HCT-116)	GI50 (CCRF-CEM)	GI50 (TK-10)	GI50 (NCI-H23)	GI50 (SF-268)	GI50 (LOX IMVI)	GI50 (HT-29)	GI50 (SN12C)	GI50 (SF-295)	GI50 (SK-OV-3)	GI50 (KM12)	GI50 (SK-MEL-2)	GI50 (HCT-15)
CC1CCC(O)C(C(O)CC2CC(=O)N(C)C(=O)C2)C1 (stereo not drawn)	> 100 µM (inactive)	> 100 µM (inactive)	> 100 µM (inactive)	> 100 µM (inactive)	> 100 µM (inactive)	> 100 µM (inactive)	> 100 µM (inactive)	> 100 µM (inactive)	> 100 µM (inactive)	> 100 µM (inactive)	> 100 µM (inactive)	> 100 µM (inactive)	> 100 µM (inactive)	–	–
C[N+](C)=c1nc(N2CCc3ccccc3C2)ss1.[O-][Cl+3]([O-])([O-])[O-]	> 100 µM (inactive)	> 100 µM (inactive)	81.3 µM (inactive)	82.8 µM (inactive)	> 100 µM (inactive)	–	> 100 µM (inactive)	–	–	> 100 µM (inactive)	–	> 100 µM (inactive)	> 100 µM (inactive)	> 100 µM (inactive)	98.2 µM
CC1=C(C#N)C(N)=C2C(C)=C(C#N)C(N)=C12	> 100 µM (inactive)	> 100 µM (inactive)	> 100 µM (inactive)	> 100 µM (inactive)	> 100 µM (inactive)	> 100 µM (inactive)	> 100 µM (inactive)	> 100 µM (inactive)	> 100 µM (inactive)	> 100 µM (inactive)	> 100 µM (inactive)	> 100 µM (inactive)	> 100 µM (inactive)	–	> 100 µM
COc1ccc([C@H]2CC(=O)N3CCCC3N2)cc1 (stereo partly drawn)	> 100 µM (inactive)	> 100 µM (inactive)	> 100 µM (inactive)	> 100 µM (inactive)	> 100 µM (inactive)	> 100 µM (inactive)	> 100 µM (inactive)	–	> 100 µM (inactive)	> 100 µM (inactive)	> 100 µM (inactive)	> 100 µM (inactive)	> 100 µM (inactive)	> 100 µM (inactive)	> 100 µM
C=C(C)C1CCC2(C)CC1c1c(c(C)cc3c1[nH]c1ccccc13)O2 (stereo not drawn)	> 25 µM (inactive)	–	> 25 µM (inactive)	24.3 µM (inactive)	–	–	> 25 µM (inactive)	> 25 µM (inactive)	> 25 µM (inactive)	> 25 µM (inactive)	–	> 25 µM (inactive)	> 25 µM (inactive)	> 25 µM (inactive)	> 25 µM
Cn1cnc([N+](=O)[O-])c1Sc1nc2cccnc2[nH]1	90.2 µM (inactive)	18.3 µM (inactive)	90.6 µM (inactive)	14.5 µM (inactive)	55.6 µM (inactive)	88.7 µM (inactive)	74.8 µM (inactive)	79.8 µM (inactive)	> 100 µM (inactive)	40.3 µM (inactive)	37.7 µM (inactive)	> 100 µM (inactive)	54.1 µM (inactive)	–	> 100 µM
CC(C)(C)NN=C1C(C)(C)C(=NNC(C)(C)C)C1(C)C	> 100 µM (inactive)	> 100 µM (inactive)	> 100 µM (inactive)	–	> 100 µM (inactive)	> 100 µM (inactive)	> 100 µM (inactive)	> 100 µM (inactive)	> 100 µM (inactive)	> 100 µM (inactive)	> 100 µM (inactive)	> 100 µM (inactive)	> 100 µM (inactive)	–	> 100 µM
COC(=O)N1[C@H]2Cc3c(OC)c(C)c(OC)c(OC)c3[C@@H]1/C(=C\c1cc(OC)c(OC)c(C)c1OC)N(Cc1ccccc1)C2=O	40.8 µM (inactive)	34.6 µM (inactive)	35.6 µM (inactive)	28.6 µM (inactive)	33.3 µM (inactive)	75 µM (inactive)	78.2 µM (inactive)	30.5 µM (inactive)	45.1 µM (inactive)	40.6 µM (inactive)	39 µM (inactive)	57.3 µM (inactive)	27.4 µM (inactive)	24.7 µM (inactive)	–
C/C(CN1C(=O)c2ccccc2C1=O)=N\NS(C)(=O)=O	> 100 µM (inactive)	> 100 µM (inactive)	> 100 µM (inactive)	> 100 µM (inactive)	> 100 µM (inactive)	> 100 µM (inactive)	> 100 µM (inactive)	–	> 100 µM (inactive)	> 100 µM (inactive)	> 100 µM (inactive)	> 100 µM (inactive)	> 100 µM (inactive)	> 100 µM (inactive)	> 100 µM
CCOC(=O)C1Oc2ccc([N+](=O)[O-])c3c2C1(O)CCC3 (stereo not drawn)	> 100 µM (inactive)	–	–	> 100 µM (inactive)	> 100 µM (inactive)	> 100 µM (inactive)	> 100 µM (inactive)	> 100 µM (inactive)	> 100 µM (inactive)	> 100 µM (inactive)	> 100 µM (inactive)	> 100 µM (inactive)	> 100 µM (inactive)	> 100 µM (inactive)	> 100 µM
O=C(O)CCSC(=O)Nc1cccc2ccccc12	> 100 µM (inactive)	> 100 µM (inactive)	> 100 µM (inactive)	> 100 µM (inactive)	> 100 µM (inactive)	> 100 µM (inactive)	> 100 µM (inactive)	> 100 µM (inactive)	> 100 µM (inactive)	> 100 µM (inactive)	> 100 µM (inactive)	> 100 µM (inactive)	> 100 µM (inactive)	–	> 100 µM
C=CCC1([C@H](C)[C@@H](OC(C)=O)c2cc(OC)c(OC)c(OC)c2)C[C@@H](OC)CCC1=O (stereo partly drawn)	27.7 µM (inactive)	70.8 µM (inactive)	13.1 µM (inactive)	3.3 µM (inactive)	51.3 µM (inactive)	9.59 µM (inactive)	13.7 µM (inactive)	–	14.1 µM (inactive)	17.7 µM (inactive)	16 µM (inactive)	59.4 µM (inactive)	16.4 µM (inactive)	15.3 µM (inactive)	14.2 µM
COC1=CC(=O)C2C(C1=O)C(c1ccc(Cl)cc1)[C@@H]2C (stereo partly drawn)	34 µM (inactive)	37.8 µM (inactive)	15.7 µM (inactive)	29.4 µM (inactive)	38.7 µM (inactive)	28.6 µM (inactive)	33 µM (inactive)	22.4 µM (inactive)	> 100 µM (inactive)	–	93.1 µM (inactive)	> 100 µM (inactive)	47.2 µM (inactive)	37.4 µM (inactive)	17.1 µM
COC(=O)c1cc(Br)c(Br)n1C	> 100 µM (inactive)	> 100 µM (inactive)	> 100 µM (inactive)	> 100 µM (inactive)	> 100 µM (inactive)	> 100 µM (inactive)	> 100 µM (inactive)	> 100 µM (inactive)	> 100 µM (inactive)	> 100 µM (inactive)	> 100 µM (inactive)	> 100 µM (inactive)	> 100 µM (inactive)	–	–
COc1ccc(/C=C\c2cc(OC)c(OC(C)=O)c(OC)c2)cc1	5.18 µM (inactive)	25.1 µM (inactive)	8.53 µM (inactive)	5.46 µM (inactive)	–	13.3 µM (inactive)	10.5 µM (inactive)	–	12.4 µM (inactive)	7.21 µM (inactive)	–	51.8 µM (inactive)	5.06 µM (inactive)	7.53 µM (inactive)	5.12 µM
